Values of other authors in patent US9296734B2 (AMGEN INC., priority 2013, dated 2016).

System: Aβ in lumbar CSF
Conditions: healthy volunteers, oral dosing of 30 or 90 mg; cited from earlier work

C[C@@]1(c2cc(-c3cncnc3)c(F)cc2F)CCSC(N)=N1 [LY2811376, (S)-4-(2,4-difluoro-5-pyrimidin-5-yl-phenyl)-4-methyl-5,6-dihydro-4H-[1,3]thiazin-2-ylamine]
Aβ reductions in lumbar CSF: Prominent and long-lasting Aβ reductions in lumbar CSF
